According to paper PMC11258331 (Scientific Reports, 2024):
Marks after values point to notes of the source that are not given here.

Assays:
[1] = system: platelet aggregation induced by adenosine diphosphate (ADP); assay: ADP (20 µM)-induced platelet aggregation, light transmission aggregometry; format: in vivo, human
Method: (§1) PD assessments were performed on Days 1 (≤ 24 h) and 5 (≤ 72 h) of each period (Supplementary Table 8); assessments included aPTT[18], FXIc[18], and bleeding time (assessed according to the PPD® Laboratories [Austin, TX] procedure where a blood pressure cuff, situated above the incision site, provided pressure at 40 mmHg and blood from the incision was wicked with filter paper every 30 s until cessation to record bleeding time). In addition, AA (1 mM), ADP) (20 µM)-, and collagen (5 μg/ml)-induced platelet aggregation assays were performed using light transmission aggregometry (PPD® Laboratories) and performed on Days 1 and 5 (≤ 24 h) for only Period 1.

[2] = system: platelet aggregation induced by collagen; assay: Collagen (5 μg/ml)-induced platelet aggregation, light transmission aggregometry; format: in vivo, human
Method: as §1

[3] = system: arachidonic acid (AA)-induced platelet aggregation; assay: AA (1 mM)-induced platelet aggregation, light transmission aggregometry; format: in vivo, human
Method: as §1

[4] = system: human carboxylesterase 1; conditions: liver; cited from earlier work
[5] = system: healthy participants; assay: Adverse events and bleeding-related AEs by treatment, phase I DDI study;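 note: counts from medical review of adverse event and bleeding-related adverse event reports, collected at selected times across the dosing interval, single US site, randomised 1:1:1 to one study part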
Method: Participants underwent screening evaluations to determine eligibility within 35 days of study drug administration, and eligible participants were randomly assigned 1:1:1 to a single part of the study.
Safety assessments were performed at selected times throughout the dosing interval (Supplementary Table 7). The assessments were based on medical review of AE and bleeding-related AE reports, and the results of vital sign measurements, ECG measurements, physical examinations, and clinical laboratory tests.

[6] = Plasma pharmacokinetics (LC-MS/MS, noncompartmental; GMR by linear mixed-effects model); conditions: for AUC: AUC(TAU);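 for all read-outs here: participants at one US clinical research site, randomized 1:1:1 to a single study part, with 90% CIs from a mixed-effects model on log-transformed PK parameters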
Method: The study (ClinicalTrials.gov Identifier: NCT03698513) was conducted at 1 clinical research center in the United States. […] Participants underwent screening evaluations to determine eligibility within 35 days of study drug administration, and eligible participants were randomly assigned 1:1:1 to a single part of the study.
All statistical analyses and calculations were performed using SAS® software (SAS Institute, Inc., Cary, North Carolina; version 9.3). All safety and plasma PK/PD data were summarized using descriptive statistics. Descriptive summaries were presented for continuous variables using number of subjects (N), mean, SD; median, minimum, and maximum. […] CIs were constructed using a linear mixed-effects model with treatment as a fixed effect and measurements within participants as repeated measures fitted to the log-transformed PK parameters.

[7] = system: activated partial thromboplastin time (aPTT); assay: Activated partial thromboplastin time (aPTT); format: in vivo, human; conditions: postdose on Day 5
Method: as §1

[8] = system: healthy participants; assay: Bleeding time (PPD Laboratories procedure); format: in vivo, human; conditions: milvexian alone (Treatments B, D, G)
Method: as §1

[9] = cited from earlier work
[10] = system: cytochrome P450 (CYP)–3A4; conditions: spray-dried dispersion formulation studies; cited from earlier work
[11] = system: patients who underwent knee arthroplasty; conditions: postoperative treatment, 25 mg QD to 200 mg BID; cited from earlier work
[12] = system: patients with acute ischemic stroke or high risk transient ischemic attack; conditions: 25 mg QD or 25, 50, 100, 200 mg BID on background of aspirin and clopidogrel; cited from earlier work
[13] = Day 1, plasma, Treatment F (milvexian + clopidogrel), Part 2
[14] = human, plasma, oral, geometric mean (90% CI), Day 1, plasma, Treatment A (milvexian + aspirin + clopidogrel), Part 1
[15] = milvexian alone (Treatments B, D, G), Days 1 and 5
[16] = Day 1, Treatment A vs Treatment B (milvexian alone)
[17] = human, plasma, oral, geometric mean [n] (90% CI), Day 5, plasma, Treatment D (milvexian alone), Part 2

COC(=O)[C@H](c1ccccc1Cl)N1CCc2sccc2C1 [Clopidogrel]
Inhibition of ADP-induced aggregation compared with baseline ([1]; drug alone (Treatment E or H)): ~ 50% | Inhibition of collagen-induced aggregation compared with baseline ([2]; drug alone (Treatment E or H)): < 10% | Inhibition of AA-induced aggregation compared with baseline ([3]; drug alone (Treatment E or H)): ~ 60% | Share first-passed hydrolyzed to clopidogrel acid [4]: ~ 85 % of absorbed drug | Anal fissure hemorrhage ([5]; Part 2 (Treatments D-F)): 0 n (%) | Contusion ([5]; Part 2 (Treatments D-F)): 1 (2.8)^†† n (%) | Deaths ([5]; Part 2 (Treatments D-F)): 0 n (%) | Discontinuations due to AEs ([5]; Part 2 (Treatments D-F)): 1 (2.8)^‖ n (%) | Epistaxis ([5]; Part 2 (Treatments D-F)): 0 n (%) | Gingival bleeding ([5]; Part 2 (Treatments D-F)): 0 n (%) | Serious AEs ([5]; Part 2 (Treatments D-F)): 0 n (%) | Total participants with an AE ([5]; Part 2 (Treatments D-F)): 6 (16.7) n (%) | Total participants with bleeding event(s) ([5]; Part 2 (Treatments D-F)): 1 (2.8) n (%) | Vessel puncture site bruise ([5]; Part 2 (Treatments D-F)): 0 n (%) | Events of contusion reported by a single participant ([5]; bleeding AE): 1 events | Reduction of Cmax ([6]; Day 1, Treatment A vs Treatment C (aspirin and clopidogrel without milvexian)): 14% | Reduction of Cmax ([6]; Day 1, Treatment F (with milvexian) vs Treatment E (clopidogrel alone)): 9.1% | Cmax, geometric mean (90% CI) [6, 13]: 4.05 (3.09, 5.31) ng/mL | Cmax, geometric mean [n] (90% CI) ([6]; Day 5, plasma, Treatment C (placebo + aspirin + clopidogrel), Part 1): 1.15 (0.898, 1.46) ng/mL | Cmax [6, 14]: 3.29 ng/mL | Cmax ([6]; human, plasma, oral, geometric mean (90% CI), Day 1, plasma, Treatment C (placebo + aspirin + clopidogrel), Part 1): 3.83 ng/mL | Cmax ([6]; human, plasma, oral, geometric mean (90% CI), Day 1, plasma, Treatment E (placebo + clopidogrel), Part 2): 4.45 ng/mL | half-life ([6]; human, plasma, oral, Mean T1/2, with (Treatment F) and without (Treatment E) milvexian, Days 1 and 5): 1 to 2 h | Tmax ([6]; human, plasma, oral, Median Tmax, Day 1, Treatments F and E): 1 to 1.5 h | Tmax ([6]; human, plasma, oral, Median Tmax, Day 5, Treatments F and E): 0.5 to 1 h | Tmax ([6]; human, plasma, oral, Tmax, median [n] (range), Day 5, plasma, Treatment C (placebo + aspirin + clopidogrel), Part 1): 0.5 h

C[C@@H]1CCC[C@H](n2cnc(-c3cc(Cl)ccc3-n3cc(Cl)nn3)cc2=O)c2cc(ccn2)-c2c(cnn2C(F)F)NC1=O [Milvexian]
Time by which aPTT returned to baseline [7]: ≤ 72 h | Effect on bleeding time [8]: did not increase bleeding times | Change of ADP-induced platelet aggregation compared with baseline [1, 15]: < 10% | Change of collagen-induced platelet aggregation compared with baseline [2, 15]: < 10% | Effect on AA-induced platelet aggregation ([3]; milvexian alone (Treatments B, D, G), not consistent, no correlation with milvexian concentration): a decrease in arachidonic acid (AA)-induced platelet aggregation was observed | Urine excretion [9]: < 20% | Route of metabolism [10]: predominantly metabolized by cytochrome P450 (CYP)–3A4 | Effect on incidence of venous thromboembolism [11]: reduced the incidence of venous thromboembolism in a dose-dependent manner | Dose response for composite of symptomatic ischemic stroke or covert brain infarction [12]: did not produce a statistically significant dose response | Anal fissure hemorrhage ([5]; Part 2 (Treatments D-F)): 0 n (%) | Contusion ([5]; Part 2 (Treatments D-F)): 0 n (%) | Deaths ([5]; Part 2 (Treatments D-F)): 0 n (%) | Discontinuations due to AEs ([5]; Part 2 (Treatments D-F)): 1 (2.8)^§ n (%) | Epistaxis ([5]; Part 2 (Treatments D-F)): 0 n (%) | Gingival bleeding ([5]; Part 2 (Treatments D-F)): 0 n (%) | Serious AEs ([5]; Part 2 (Treatments D-F)): 0 n (%) | Total participants with an AE ([5]; Part 2 (Treatments D-F)): 5 (13.9) n (%) | Total participants with bleeding event(s) ([5]; Part 2 (Treatments D-F)): 0 n (%) | Vessel puncture site bruise ([5]; Part 2 (Treatments D-F)): 0 n (%) | Anal fissure hemorrhage ([5]; Part 3 (Treatments G-I)): 1 (2.7) n (%) | Contusion ([5]; Part 3 (Treatments G-I)): 0 n (%) | Deaths ([5]; Part 3 (Treatments G-I)): 0 n (%) | Discontinuations due to AEs ([5]; Part 3 (Treatments G-I)): 1 (2.7)^¶ n (%) | Epistaxis ([5]; Part 3 (Treatments G-I)): 0 n (%) | Gingival bleeding ([5]; Part 3 (Treatments G-I)): 0 n (%) | Serious AEs ([5]; Part 3 (Treatments G-I)): 0 n (%) | Total participants with an AE ([5]; Part 3 (Treatments G-I)): 6 (16.2) n (%) | Total participants with bleeding event(s) ([5]; Part 3 (Treatments G-I)): 1 (2.7) n (%) | Vessel puncture site bruise ([5]; Part 3 (Treatments G-I)): 0 n (%) | Events of anal fissure hemorrhage reported by a single participant ([5]; bleeding AE, Part 3, Treatment G): 1 events | Reduction of AUC(TAU) [6, 16]: 15% | Reduction of Cmax [6, 16]: 17% | Tmax, median (range) ([6]; Day 1, plasma, Treatment A (milvexian + aspirin + clopidogrel), Part 1): 4.00 (2.13, 6.02) h | Tmax, median (range) ([6]; Day 1, plasma, Treatment B (milvexian alone), Part 1): 3.00 (2.00, 4.13) h | Tmax, median (range) ([6]; Day 1, plasma, Treatment D (milvexian alone), Part 2): 4.00 (2.00, 6.00) h | AUC(TAU), geometric mean [n] (90% CI) [6, 13]: 5042 (4621, 5503) ng•h/mL | Tmax, median (range) [6, 13]: 4.00 (2.00, 4.13) h | Tmax, median (range) ([6]; Day 1, plasma, Treatment G (milvexian alone), Part 3): 4.00 (2.00, 6.02) h | Tmax, median (range) ([6]; Day 1, plasma, Treatment I (milvexian + aspirin), Part 3): 4.00 (2.00, 6.03) h | Tmax, median [n] (range) ([6]; Day 5, plasma, Treatment B (milvexian alone), Part 1): 3.00 (0.00, 6.00) h | Tmax, median [n] (range) ([6]; Day 5, plasma, Treatment F (milvexian + clopidogrel), Part 2): 4.00 (1.00, 6.00) h | AUC ([6]; human, plasma, oral, geometric mean [n] (90% CI), Day 1, plasma, Treatment B (milvexian alone), Part 1): 5610 ng·h/mL | AUC [6, 17]: 22000 ng·h/mL | Cmax [6, 14]: 718 ng/mL | Cmax ([6]; human, plasma, oral, geometric mean (90% CI), Day 1, plasma, Treatment B (milvexian alone), Part 1): 868 ng/mL | Cmax ([6]; human, plasma, oral, geometric mean (90% CI), Day 1, plasma, Treatment D (milvexian alone), Part 2): 898 ng/mL | Cmax ([6]; human, plasma, oral, geometric mean (90% CI), Day 1, plasma, Treatment F (milvexian + clopidogrel), Part 2): 817 ng/mL | Cmax ([6]; human, plasma, oral, geometric mean (90% CI), Day 1, plasma, Treatment G (milvexian alone), Part 3): 867 ng/mL | Cmax ([6]; human, plasma, oral, geometric mean (90% CI), Day 1, plasma, Treatment I (milvexian + aspirin), Part 3): 850 ng/mL | Cmax ([6]; human, plasma, oral, geometric mean [n] (90% CI), Day 5, plasma, Treatment B (milvexian alone), Part 1): 2690 ng/mL | Cmax [6, 17]: 2670 ng/mL | Cmax ([6]; human, plasma, oral, geometric mean [n] (90% CI), Day 5, plasma, Treatment F (milvexian + clopidogrel), Part 2): 2500 ng/mL | Tmax ([6]; human, plasma, oral, Median Tmax, across Treatments A and B): 3 to 4 h | Tmax ([6]; human, plasma, oral, Tmax, median [n] (range), Day 5, plasma, Treatment D (milvexian alone), Part 2): 3.05 h
